Test results as given in patent US8883792B2, “Substituted isoquinoline derivative” (D. Western Therapeutics Institute, Inc., priority 2010, dated 2014).
Structures can show the parent of a compound that is named as a salt.

Columns and labels:
[1] = test system: spontaneously hypertensive rats (SHR/Izm); experiment: Blood pressure lowering effect in spontaneously hypertensive rats; format: in vivo; conditions: Rattus norvegicus, ip, male SHR/Izm rats, intraperitoneal, measured over time, read-out: lowered the systolic blood pressures by up to, compared with the value before administration
Procedure: The compound of the present invention was intraperitoneally administered to spontaneously hypertensive rats (SHR/Izm, sex: male, 4 to 6 rats per group) and evaluated for its blood pressure lowering effect. The compounds of Examples 5, 23, 25, 35, 36, 53, 58, 83, 84, 86, 87, and 90 were used as test compounds.
Each test compound was dissolved in saline and diluted to prepare a test compound solution with a predetermined concentration.
The test compound was intraperitoneally administered at a dose of 10 mg/kg to the animals, and their blood pressures and pulse rates were measured over time using Softron Indirect Blood Pressure Meter BP-98A.

[2] = test system: rabbits (New Zealand White); experiment: Ocular hypotensive effect in rabbits; format: in vivo, rabbit; conditions: male New Zealand White rabbits, 0.04 mL eye drop, concentration of 1% (w/v) or lower, maximum ocular hypotensive rate vs vehicle-treated contralateral eye
Outline: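 Male New Zealand White rabbits (3–6 per group) received 0.04 mL compound solution (pH 7.0 phosphate/NaCl vehicle or 2% boric acid) in one eye and vehicle in the other. IOP measured by rebound tonometer before dosing and over time; ocular hypotensive rate taken as treated-eye IOP relative to vehicle-eye IOP.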

| Structure (SMILES) | inhibition in vivo at 10 mg/kg [1] | Ocular hypotensive activity [2] |
| --- | --- | --- |
| CCCCNC[C@@H](C)NS(=O)(=O)c1ccc2cnccc2c1 [Example 5, (R)—N-{1-(butylamino)propan-2-yl}isoquinoline-6-sulfonamide dihydrochloride] | ≤ 16% | ++ (maximum ocular hypotensive rate of 15% or more) |
| C[C@H](CNCCc1ccccc1)NS(=O)(=O)c1ccc2cnccc2c1 [Example 23, (R)—N-{1-(phenethylamino)propan-2-yl}isoquinoline-6-sulfonamide dihydrochloride] | ≥ 30% | ++ (maximum ocular hypotensive rate of 15% or more) |
| C[C@H](CNC[C@H](C)c1ccccc1)NS(=O)(=O)c1ccc2cnccc2c1 [Example 25, N—[(R)-1-{(R)-2-phenylpropylamino}propan-2-yl]isoquinoline-6-sulfonamide dihydrochloride] | ≥ 30% | ++ (maximum ocular hypotensive rate of 15% or more) |
| C[C@H](CNCCCCc1ccccc1)NS(=O)(=O)c1ccc2cnccc2c1 [Example 35, (R)—N-{1-(4-phenylbutylamino)propan-2-yl}isoquinoline-6-sulfonamide dihydrochloride] | ≤ 20% | ++ (maximum ocular hypotensive rate of 15% or more) |
| C[C@H](CNCCc1c[nH]c2ccccc12)NS(=O)(=O)c1ccc2cnccc2c1.Cl [Example 36, (R)—N-[1-{2-(1H-indol-3-yl)ethylamino}propan-2-yl]isoquinoline-6-sulfonamide hydrochloride] | ≥ 30% | ++ (maximum ocular hypotensive rate of 15% or more) |
| C[C@H](CNCCc1ccc(F)cc1)NS(=O)(=O)c1ccc2cnccc2c1.Cl [Example 53, (R)—N-{1-(4-fluorophenethylamino)propan-2-yl}isoquinoline-6-sulfonamide hydrochloride] | ≥ 30% | ++ (maximum ocular hypotensive rate of 15% or more) |
| Cc1ccc(CCNC[C@@H](C)NS(=O)(=O)c2ccc3cnccc3c2)cc1.Cl [Example 58, (R)—N-{1-(4-methylphenethylamino)propan-2-yl}isoquinoline-6-sulfonamide hydrochloride] | ≥ 30% | ++ (maximum ocular hypotensive rate of 15% or more) |
| C[C@H](CNC[C@@H](O)c1ccccc1)NS(=O)(=O)c1ccc2cnccc2c1.Cl [Example 83, N—[(R)-1-{(S)-2-hydroxy-2-phenylethylamino}propan-2-yl]isoquinoline-6-sulfonamide hydrochloride] | ≥ 30% | ++ (maximum ocular hypotensive rate of 15% or more) |
| C[C@H](CNC[C@@H](O)c1ccc(F)cc1)NS(=O)(=O)c1ccc2cnccc2c1.Cl [Example 84, N—[(R)-1-{(S)-2-(4-fluorophenyl)-2-hydroxyethylamino}propan-2-yl]isoquinoline-6-sulfonamide hydrochloride] | ≤ 20% | ++ (maximum ocular hypotensive rate of 15% or more) |
| C[C@H](CNC[C@@](C)(O)c1ccccc1)NS(=O)(=O)c1ccc2cnccc2c1.Cl [Example 86, N—[(R)-1-{(S)-2-hydroxy-2-phenylpropylamino}propan-2-yl]isoquinoline-6-sulfonamide hydrochloride] | ≥ 30% | ++ (maximum ocular hypotensive rate of 15% or more) |
| C[C@H](CNC[C@H](O)c1ccccc1)NS(=O)(=O)c1ccc2cnccc2c1.Cl [Example 87, N—[(R)-1-{(R)-2-hydroxy-2-phenylethylamino}propan-2-yl]isoquinoline-6-sulfonamide hydrochloride] | ≤ 20% | ++ (maximum ocular hypotensive rate of 15% or more) |
| C[C@H](CNC[C@@H](O)c1ccsc1)NS(=O)(=O)c1ccc2cnccc2c1.Cl [Example 90, N—[(R)-1-{(S)-2-hydroxy-2-(thiophen-3-yl)ethylamino}propan-2-yl]isoquinoline-6-sulfonamide hydrochloride] | ≤ 20% | ++ (maximum ocular hypotensive rate of 15% or more) |
| C[C@@H](NS(=O)(=O)c1ccc2cnccc2c1)[C@@H](N)CCCc1ccccc1 [Example 117, N-{(2R,3S)-3-amino-6-phenylhexan-2-yl)isoquinoline-6-sulfonamide hydrochloride] | – | ++ (maximum ocular hypotensive rate of 15% or more) |
| CNC(CCc1ccccc1)C[C@@H](C)NS(=O)(=O)c1ccc2cnccc2c1 (stereo partly drawn) [Example 120, N-{(2R)-4-(methylamino)-6-phenylhexan-2-yl}isoquinoline-6-sulfonamide dihydrochloride] | – | ++ (maximum ocular hypotensive rate of 15% or more) |
